Measured values reported in ChEMBL document CHEMBL1125820, “Structure-activity relationship of mutagenic aromatic and heteroaromatic nitro compounds. Correlation with molecular orbital energies and hydrophobicity” (J Med Chem, 1991).

Tests used:
[1] = Partition coefficient (logP); conditions: octanol/water
[2] = tested on: Salmonella typhimurium; experiment: Mutagenic activity in Salmonella Typhimurium TA98 using Ames test; Activity is log of revertants / nmol; a= inactive; type: functional, Salmonella enterica subsp. enterica serovar Typhimurium
[3] = tested on: Salmonella typhimurium; experiment: Mutagenic activity in an Ames test on Salmonella Typhimurium TA98; Activity is log of revertants/nmol; type: functional, Salmonella enterica subsp. enterica serovar Typhimurium; set-up: scale not given here

`O=[N+]([O-])c1c2ccccc2cc2ccccc12` showed a logP [1] of 4.78 and an Activity [2] of -0.95.

In the case of `O=[N+]([O-])c1ccc2oc3ccccc3c2c1`, the logP [1] is reported as 3.83 and the Activity [3] is reported as 1.64.

For `O=Cc1ccc([N+](=O)[O-])o1`, the logP [1] was 1.01 and the Activity [3] was 0.64.

Molecule `O=[N+]([O-])c1ccc2cc3ccccc3cc2c1` has a logP [1] of 4.23 and an Activity [3] of 2.95.

Molecule `O=[N+]([O-])c1ccc2ccc3cc4ccccc4c4ccc1c2c34` has a logP [1] of 5.87 and an Activity [3] of 2.63.

Work on `O=[N+]([O-])c1ccc2cn[nH]c2c1` yielded a logP [1] of 2.06 and an Activity [3] of 0.66.

Molecule `O=[N+]([O-])c1cccc2cccc([N+](=O)[O-])c12` has a logP [1] of 2.52 and an Activity [3] of 0.9.

`O=[N+]([O-])c1ccc2[nH]c3ccccc3c2c1` showed a logP [1] of 3.51 and an Activity [3] of -0.7.

In the case of `Cn1ncc2cc([N+](=O)[O-])ccc21`, the logP [1] is reported as 1.77 and the Activity [3] is reported as -0.82.

`O=[N+]([O-])c1cc(F)ccc1F` showed a logP [1] of 1.89 and an Activity [3] of -0.79.

In the case of `Cc1ccccc1-c1ccc([N+](=O)[O-])cc1`, the logP [1] is reported as 4.27 and the Activity [3] is reported as -0.23.

`Cn1c([N+](=O)[O-])nc2ccccc21` gave a logP [1] of 1.58 and an Activity [3] of 2.54.

Molecule `O=[N+]([O-])C1=CC2Nc3ccc([N+](=O)[O-])cc3NC2C=C1` (configuration not stated) has a logP [1] of 2.29 and an Activity [3] of 4.34.

With `Nc1ccccc1-c1ccc([N+](=O)[O-])cc1` the logP [1] was 2.68 and the Activity [3] was -1.7.

For `O=[N+]([O-])c1cc2ccc3cccc4ccc(c1)c2c34`, the logP [1] was 4.69 and the Activity [3] was 3.35.

Molecule `O=[N+]([O-])c1cccc2[nH]c3ccccc3c12` has a logP [1] of 3.51 and an Activity [3] of -2.

`O=[N+]([O-])c1ccc2ccc3c([N+](=O)[O-])cc([N+](=O)[O-])c4ccc1c2c34` showed a logP [1] of 4.18 and an Activity [3] of 4.99.

With `O=[N+]([O-])c1ccc2c(c1)Oc1cc(Cl)c(Cl)cc1O2` the logP [1] was 6.24 and the Activity [3] was 1.73.

Molecule `O=[N+]([O-])c1ccc(Cl)c([N+](=O)[O-])c1` [DINITROCHLOROBENZENE] has a logP [1] of 2.17 and an Activity [3] of 0.3.

`O=[N+]([O-])c1ccc2c(c1)-c1ccc([N+](=O)[O-])c3cccc-2c13` showed a logP [1] of 4.44 and an Activity [3] of 5.02.

`O=[N+]([O-])c1cc2c([N+](=O)[O-])ccc3c2c(c1[N+](=O)[O-])-c1ccccc1-3` gave a logP [1] of 4.18 and an Activity [3] of 3.56.

Molecule `O=[N+]([O-])c1ccc(-c2ccccc2)cc1` has a logP [1] of 3.77 and an Activity [3] of -0.3.

`CN1Cc2cc([N+](=O)[O-])ccc2N1` gave a logP [1] of 1.77 and an Activity [3] of -1.1.

With `O=[N+]([O-])c1cc2c3c(c1)CCc1cc([N+](=O)[O-])cc(c1-3)CC2` the logP [1] was 5.02 and the Activity [3] was 3.5.

`O=[N+]([O-])c1cc(O)c2ccc3cccc4ccc1c2c34` gave a logP [1] of 4.66 and an Activity [3] of 3.87.

Molecule `Nc1ccc2c(c1)Cc1cc([N+](=O)[O-])ccc1-2` has a logP [1] of 3.06 and an Activity [3] of 1.56.

`O=[N+]([O-])c1cccc2cnccc12` showed a logP [1] of 1.65 and an Activity [3] of -1.55.

In the case of `Cc1cc(-c2ccccc2)ccc1[N+](=O)[O-]`, the logP [1] is reported as 3.99 and the Activity [3] is reported as -0.1.

Work on `Cc1ccccc1-c1ccc([N+](=O)[O-])c(C)c1` yielded a logP [1] of 4.49 and an Activity [3] of -0.84.

With `O=[N+]([O-])c1ccc2c3ccc([N+](=O)[O-])c4ccc5ccc6ccc1c2c6c5c43` the logP [1] was 6.07 and the Activity [3] was 3.6.

For `O=[N+]([O-])c1cc([N+](=O)[O-])c2ccccc2c1`, the logP [1] was 2.83 and the Activity [3] was -0.05.
